Data as given in paper PMC6389993, “Quercetin and its metabolite isorhamnetin promote glucose uptake through different signalling pathways in myotubes” (Scientific Reports, 2019).

Experiments:
JAK3 = assay: Phosphorylation of JAK3 in L6 myotubes (western blot); type: cell-based, rat; conditions: physiological concentration range (0.1–10 nM), 15 min
Protocol: (§1) For in vitro cell culture experiments, after serum starvation for 18 h, myotubes were treated with various concentrations of quercetin or isorhamnetin (0.1–10 nM) for 15 min; DMSO (final 0.1%) was used as a vehicle control. As positive controls, 100 nM insulin, 1 mM AICAR, 10 nM leptin, or 100 ng/mL IL-15 were used for insulin, AMPK, JAK2/STAT, or JAK3/STAT signalling pathways, respectively. Cells were treated with insulin or AICAR for 15 min, leptin for 60 min, or IL-15 for 24 h. Whole protein and plasma membrane fractions were prepared from myotubes, as previously described. For in vivo experiment, plasma membrane fraction and tissue lysate of soleus muscle were prepared.
(§2) Translocation of GLUT4 to the plasma membrane, as well as expression and phosphorylation levels of GLUT4-related regulators were estimated by western blot analysis. Briefly, equal amounts of proteins were separated by sodium dodecyl sulfate-polyacrylamide gel electrophoresis (SDS-PAGE). […] Specific immune complexes were developed using ImmunoStar® LD and detected with an ATTO Light-Capture II Western Blotting Detection System. Individual band density was calculated by ImageJ and normalized to the control.

STAT1 = assay: Phosphorylation of STAT1 in L6 myotubes (western blot); type: cell-based, rat; conditions: 0.1–10 nM, 15 min
Protocol: as §1, §2

STAT5 = assay: Phosphorylation of STAT5 in L6 myotubes (western blot); type: cell-based, rat; conditions: 1 nM, 15 min
Protocol: as §1, §2

STAT3 = assay: Phosphorylation of STAT3 in L6 myotubes (western blot); type: cell-based, rat; conditions: 10 nM, 15 min
Protocol: as §1, §2

IR = assay: Phosphorylation of insulin receptor in L6 myotubes (immunoprecipitation, western blot); type: cell-based, rat; conditions: 0.1–10 nM, 15 min, all concentrations tested
Protocol: as §1
Translocation of GLUT4 to the plasma membrane, as well as expression and phosphorylation levels of GLUT4-related regulators were estimated by western blot analysis. Briefly, equal amounts of proteins were separated by sodium dodecyl sulfate-polyacrylamide gel electrophoresis (SDS-PAGE). […] Specific immune complexes were developed using ImmunoStar® LD and detected with an ATTO Light-Capture II Western Blotting Detection System. Individual band density was calculated by ImageJ and normalized to the control. […]

LKB1 = assay: Phosphorylation of LKB1 in L6 myotubes (western blot); type: cell-based, rat; conditions: 0.1–10 nM, 15 min
Protocol: as §1, §2

GLUT4 = GLUT4 translocation in L6 myotubes after siRNA knockdown of AMPKα, JAK2 or JAK3; type: cell-based, rat; conditions: for compound-induced GLUT4 translocation after siRNA for AMPK: siAMPKα 50 nM 48 h, 1 mM AICAR; for compound-induced GLUT4 translocation after siRNA for AMPK / compound-induced GLUT4 translocation after siRNA for JAK2: 1 nM quercetin or isorhamnetin; for compound-induced GLUT4 translocation after siRNA for JAK2: siJAK2 50 nM 48 h, 10 nM leptin
Protocol: as §1
Translocation of GLUT4 to the plasma membrane, as well as expression and phosphorylation levels of GLUT4-related regulators were estimated by western blot analysis. Briefly, equal amounts of proteins were separated by sodium dodecyl sulfate-polyacrylamide gel electrophoresis (SDS-PAGE). Separated proteins were transferred onto a polyvinylidene fluoride membrane and nonspecific binding sites were blocked using either Blocking One (to detect unphosphorylated proteins) or Blocking One-P (to detect phosphoproteins). The membrane was incubated overnight with an appropriate primary antibody for GLUT4 (1:5000), IR (1:10000), p-IRS1 (1:5000), IRS1 (1:5000), p-PI3K (1:5000), PI3K (1:10000), p-Akt (1:5000), Akt (1:10000), p-AMPKα (1:5000), AMPKα (1:10000), p-ACC (1:5000), ACC (1:10000), p-LKB1 (1:5000), LKB1 (1:10000), p-JAK2 (1:5000), JAK2 (1:5000), p-JAK3 (1:5000), JAK3 (1:10000), p-STAT1 (1:5000), STAT1 (1:10000), p-STAT3 (1:5000), STAT3 (1:10000), p-STAT5 (1:5000), STAT5 (1:10000), or β-actin (1:20000), and subsequently treated with the corresponding horseradish peroxidase-conjugated secondary antibody (1:50000) for 1 h. Specific immune complexes were developed using ImmunoStar® LD and detected with an ATTO Light-Capture II Western Blotting Detection System. Individual band density was calculated by ImageJ and normalized to the control.
Mature myotubes were cultured in antibiotic-free medium and transfected with siRNA at a final concentration of 50 nM using Lipofectamine RNAiMAX transfection reagent according to the manufacturer’s instructions. In brief, mature myotubes were transfected with siRNA in Opti-MEM for 48 h. Subsequently, the medium was changed to fresh Opti-MEM and cells were treated with the indicated concentrations of quercetin or isorhamnetin.

ACC = assay: Phosphorylation of ACC in L6 myotubes (western blot); type: cell-based, rat; conditions: 0.1 nM or 1 nM, 15 min
Protocol: as §1, §2

IRS1 = assay: Phosphorylation of IRS1 in L6 myotubes (western blot); type: cell-based, rat; conditions: 0.1–10 nM, 15 min
Protocol: as §1, §2

[1] = cited from earlier work
PKCζ/λ = assay: Phosphorylation of PKCζ/λ in L6 myotubes; type: cell-based, rat; conditions: 10 nM, data not shown

Compound: COc1cc(-c2oc3cc(O)cc(O)c3c(=O)c2O)ccc1O [isorhamnetin, 3′-O-methyl quercetin]
- JAK3 phosphorylation (JAK3): effectively promoted
- phosphorylation of STAT1 (STAT1): but not STAT1
- phosphorylation of STAT5 (STAT5): increased
- phosphorylation of STAT3 (STAT3): increased
- phosphorylation of insulin receptors (IRs) (IR): failed to activate
- LKB1 phosphorylation (LKB1): neither quercetin nor isorhamnetin increased LKB1 phosphorylation
- compound-induced GLUT4 translocation after siRNA for AMPK (GLUT4): failed to suppress
- compound-induced GLUT4 translocation after siRNA for JAK2 (GLUT4): abolished
- compound-induced GLUT4 translocation after siRNA for JAK3 (GLUT4; siJAK3 50 nM 48 h, 1 nM isorhamnetin, not significant): slightly decreased

Compound: O=c1c(O)c(-c2ccc(O)c(O)c2)oc2cc(O)cc(O)c12 [quercetin, 3,3′,4′,5,7-pentahydroxy flavone]
- phosphorylation of ACC (ACC): phosphorylation was increased
- phosphorylation of IRS1 (IRS1): dose-dependently promoted
- basal concentrations in the blood ([1]; humans, after consumption of 80–100 mg of quercetin equivalent): 300 to 750 nM
- absorption rate ([1]; in humans): 9–20%
- phosphorylation of insulin receptors (IRs) (IR): failed to activate
- LKB1 phosphorylation (LKB1): neither quercetin nor isorhamnetin increased LKB1 phosphorylation
- phosphorylation of PKCζ/λ (PKCζ/λ): phosphorylated
- compound-induced GLUT4 translocation after siRNA for AMPK (GLUT4): almost completely abolished
- compound-induced GLUT4 translocation after siRNA for JAK2 (GLUT4): without affecting
